*1 amine or outer side, *2 acyl side, *3 side chain or, on linkers, in order; H or OH if unused. Where a SMILES comes first, the peptide text is derived from it. Side-chain parts run from the residue outwards. [ ]: non-standard residue; d: D form. The star is where a group is joined. C18 diacid = O=C(O)CCCCCCCCCCCCCCCCC(=O)*; C16 diacid = O=C(O)CCCCCCCCCCCCCCC(=O)*; γGlu = O=C(O)[C@H](CCC(=O)[*:2])N[*:1]; NMeI = CC[C@H](C)[C@H](NC)C(=O)O; αMeL = CC(C)C[C@](C)(N)C(=O)O; Abu = CC[C@H](N)C(=O)O; AEEA = NCCOCCOCC(=O)O; Aib = CC(C)(N)C(=O)O; Propionyl = CCC(=O)*
Columns and labels:
CFR1R receptor = target: T1, CFR1R receptor (Homo sapiens, UniProt P34998); assay: Activity at anti-target CFR1R receptor, cAMP assay in CRF1R-overexpression CHO-K1 cells; format: cell-based; conditions: 100% = Sauvagine at 100 nM; for EC50: cAMP
T1 construct: host or cells: CHO-K1 (clone 2)
T1 sequence (P34998 24-415): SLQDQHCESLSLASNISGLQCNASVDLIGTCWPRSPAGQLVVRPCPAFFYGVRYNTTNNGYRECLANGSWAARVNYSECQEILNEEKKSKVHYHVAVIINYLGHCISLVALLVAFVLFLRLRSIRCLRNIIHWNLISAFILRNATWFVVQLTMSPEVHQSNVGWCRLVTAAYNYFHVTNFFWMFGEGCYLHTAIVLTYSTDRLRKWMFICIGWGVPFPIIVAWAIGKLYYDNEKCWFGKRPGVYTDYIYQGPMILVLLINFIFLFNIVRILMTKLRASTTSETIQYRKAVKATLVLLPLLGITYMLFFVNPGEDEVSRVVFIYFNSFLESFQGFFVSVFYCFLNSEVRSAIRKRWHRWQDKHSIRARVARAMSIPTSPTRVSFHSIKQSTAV
In short: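 Run as for the TeloHAEC line, except the full-activation control well received Sauvagine (100 nM) and final density was 4000 cells/well. Cells from clone 2 came from frozen aliquots of near-confluent cultures.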

human CRF2a receptor = target: T2, human CRF2a receptor (Homo sapiens, UniProt Q13324); assay: Activity at human CRF2a receptor, cAMP functional assay in TeloHEAC cells; format: cell-based; conditions: TeloHEAC cells stably expressing human CRF2a receptor, relative to urocortin 2 (100 nM = 100%)
T2 construct: expressed in transfected cells; host or cells: TeloHEAC cells
T2 sequence (Q13324 1-411): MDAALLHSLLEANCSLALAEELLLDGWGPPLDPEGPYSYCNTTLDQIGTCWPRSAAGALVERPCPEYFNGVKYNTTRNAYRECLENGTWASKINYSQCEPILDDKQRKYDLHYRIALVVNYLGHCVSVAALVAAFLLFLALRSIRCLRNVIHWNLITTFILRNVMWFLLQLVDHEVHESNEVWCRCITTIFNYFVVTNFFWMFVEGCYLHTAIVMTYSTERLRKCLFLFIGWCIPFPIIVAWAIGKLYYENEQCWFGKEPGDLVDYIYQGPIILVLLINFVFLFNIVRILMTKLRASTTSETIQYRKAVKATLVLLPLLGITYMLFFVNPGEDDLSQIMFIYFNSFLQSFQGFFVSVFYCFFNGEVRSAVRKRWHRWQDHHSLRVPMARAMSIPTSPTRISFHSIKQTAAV
In short: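 cAMP accumulation was measured by HTRF 665/620 nm ratio after 30 min at 37° C compound exposure (16 twofold dilutions) of CRF2a-expressing TeloHEAC cells, 10000/well, in HEPES-buffered HBSS plus IBMX. Activity was normalised to urocortin 2 at 100 nM (100%), and EC50 was the concentration giving half-maximal activation.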

Emax (% I) (CFR1R receptor)	EC50 (CFR1R receptor) [nM]	EC50 (human CRF2a receptor) [nM]	Compound
12	> 250	0.21	CC[C@H](C)[C@H](NC(C)=O)C(=O)N[C@H](C(=O)N[C@@H](CC(C)C)C(=O)N[C@@H](CO)C(=O)N[C@@H](CC(C)C)C(=O)N[C@@H](CC(=O)O)C(=O)N[C@@H](C(=O)N1CCC[C@H]1C(=O)N[C@H](C(=O)N[C@@H](CCCCN)C(=O)N[C@@H](CC(C)C)C(=O)N[C@@H](CCCCNC(=O)CC[C@H](NC(=O)CCCCCCCCCCCCCCC(=O)O)C(=O)O)C(=O)N[C@@H](CCC(N)=O)C(=O)N[C@H](C(=O)N[C@@H](CC(C)C)C(=O)N[C@@H](CC(C)C)C(=O)N[C@@H](CCCCN)C(=O)N[C@@H](CCC(N)=O)C(=O)N[C@@H](CCC(=O)O)C(=O)N[C@@H](CCCNC(=N)N)C(=O)N[C@@H](CCC(N)=O)C(=O)N[C@@H](CCCCN)C(=O)N[C@@H](CCCCN)C(=O)N[C@@H](CCC(N)=O)C(=O)N[C@@H](CCCNC(=N)N)C(=O)N[C@@H](CCC(=O)O)C(=O)N[C@@H](CCC(N)=O)C(=O)N[C@@H](C)C(=O)N[C@@H](CCC(=O)O)C(=O)N[C@@H](CCCCN)C(=O)N[C@@H](CC(N)=O)C(=O)N[C@@H](CCC(=O)O)C(=O)N[C@@H](CCC(N)=O)C(=O)N[C@H](C(=O)N[C@@H](CC(C)C)C(=O)N[C@@H](CCC(=O)O)C(=O)N[C@@H](CCC(N)=O)C(=O)N[C@H](C(N)=O)C(C)C)[C@@H](C)CC)[C@@H](C)CC)[C@@H](C)CC)C(C)C)C(C)C [compound 17] (Ac-IVLSLD[dV]PIKLK([γGlu-C16 diacid])QILLKQERQKKQREQAEKNEQILEQV-NH2)
11	> 250	0.08	CC[C@H](NC(=O)[C@H](CC(N)=O)NC(=O)[C@@H](NC(=O)[C@H](CCC(=O)O)NC(=O)[C@H](C)NC(=O)[C@H](CCC(N)=O)NC(=O)[C@H](CCC(=O)O)NC(=O)[C@H](CCCNC(=N)N)NC(=O)[C@H](CCC(N)=O)NC(=O)[C@H](CCCCN)NC(=O)[C@H](CCCCN)NC(=O)[C@H](CCC(N)=O)NC(=O)[C@H](CCCCN)NC(=O)[C@H](CCC(=O)O)NC(=O)[C@H](CCC(N)=O)NC(=O)[C@H](CCC(=O)O)NC(=O)[C@H](CC(C)C)NC(=O)[C@H](CC(C)C)NC(=O)[C@@H](NC(=O)[C@H](CCCCN)NC(=O)[C@H](CCCCNC(=O)CC[C@H](NC(=O)CCCCCCCCCCCCCCCCC(=O)O)C(=O)O)NC(=O)[C@H](CC(C)C)NC(=O)[C@H](CCCCN)NC(=O)[C@@H](NC(=O)[C@@H]1CCCN1C(=O)[C@H](NC(=O)[C@H](CC(=O)O)NC(=O)[C@H](CC(C)C)NC(=O)[C@H](CO)NC(=O)[C@H](CC(C)C)NC(=O)[C@@H](NC(=O)[C@@H](NC(C)=O)[C@@H](C)CC)C(C)C)C(C)C)[C@@H](C)CC)[C@@H](C)CC)[C@@H](C)O)C(=O)N[C@@H](CCC(N)=O)C(=O)N[C@H](C(=O)N[C@@H](CC(C)C)C(=O)N[C@@H](C)C(=O)N[C@@H](CCC(N)=O)C(=O)N[C@H](C(N)=O)C(C)C)[C@@H](C)CC [compound 127] (Ac-IVLSLD[dV]PIKLK([γGlu-C18 diacid])KILLEQEKQKKQREQAETN[Abu]QILAQV-NH2)
10	> 250	0.1	CC[C@H](C)[C@H](NC)C(=O)N[C@H](C(=O)N[C@@H](CC(C)C)C(=O)N[C@@H](CO)C(=O)N[C@@H](CC(C)C)C(=O)N[C@@H](CC(=O)O)C(=O)N[C@@H](C(=O)N1CCC[C@H]1C(=O)N[C@H](C(=O)N[C@@H](CCCCN)C(=O)N[C@@](C)(CC(C)C)C(=O)N[C@@H](CCCCNC(=O)CC[C@H](NC(=O)CCCCCCCCCCCCCCC(=O)O)C(=O)O)C(=O)N[C@@H](CCCCN)C(=O)N[C@H](C(=O)N[C@@H](CC(C)C)C(=O)N[C@@H](CC(C)C)C(=O)N[C@@H](CCC(=O)O)C(=O)N[C@@H](CCC(N)=O)C(=O)N[C@@H](CCC(=O)O)C(=O)N[C@@H](CCCCN)C(=O)N[C@@H](CCC(N)=O)C(=O)N[C@@H](CCCCN)C(=O)N[C@@H](CCCCN)C(=O)N[C@@H](CCC(N)=O)C(=O)N[C@@H](CCCNC(=N)N)C(=O)N[C@@H](CCC(=O)O)C(=O)N[C@@H](CCC(N)=O)C(=O)N[C@@H](C)C(=O)N[C@@H](CCC(=O)O)C(=O)N[C@H](C(=O)N[C@@H](CC(N)=O)C(=O)NC(C)(C)C(=O)N[C@@H](CCC(N)=O)C(=O)N[C@H](C(=O)N[C@@H](CC(C)C)C(=O)N[C@@H](C)C(=O)N[C@@H](CCC(N)=O)C(=O)N[C@H](C(N)=O)C(C)C)[C@@H](C)CC)[C@@H](C)O)[C@@H](C)CC)[C@@H](C)CC)C(C)C)C(C)C [compound 65] (H-[NMeI]VLSLD[dV]PIK[αMeL]K([γGlu-C16 diacid])KILLEQEKQKKQREQAETN[Aib]QILAQV-NH2)
7	> 250	0.73	CCC(=O)N[C@H](C(=O)N[C@@H](CC(C)C)C(=O)N[C@@H](CO)C(=O)N[C@@H](CC(C)C)C(=O)N[C@@H](CC(=O)O)C(=O)N[C@@H](C(=O)N1CCC[C@H]1C(=O)N[C@H](C(=O)N[C@@H](CCCCN)C(=O)N[C@@H](CC(C)C)C(=O)N[C@@H](CCCCNC(=O)CC[C@H](NC(=O)CCCCCCCCCCCCCCC(=O)O)C(=O)O)C(=O)N[C@@H](CCCCN)C(=O)N[C@H](C(=O)N[C@@H](CC(C)C)C(=O)N[C@@H](CC(C)C)C(=O)N[C@@H](CCC(=O)O)C(=O)N[C@@H](CCC(N)=O)C(=O)N[C@@H](CCC(=O)O)C(=O)N[C@@H](CCCCN)C(=O)N[C@@H](CCC(N)=O)C(=O)N[C@@H](CCCCN)C(=O)N[C@@H](CCCCN)C(=O)N[C@@H](CCC(N)=O)C(=O)N[C@@H](CCCNC(=N)N)C(=O)N[C@@H](CCC(=O)O)C(=O)N[C@@H](CCC(N)=O)C(=O)N[C@@H](C)C(=O)N[C@@H](CCC(=O)O)C(=O)N[C@H](C(=O)N[C@@H](CC(N)=O)C(=O)NC(C)(C)C(=O)N[C@@H](CCC(N)=O)C(=O)N[C@H](C(=O)N[C@@H](CC(C)C)C(=O)N[C@@H](C)C(=O)N[C@@H](CCC(N)=O)C(=O)N[C@H](C(N)=O)C(C)C)[C@@H](C)CC)[C@@H](C)O)[C@@H](C)CC)[C@@H](C)CC)C(C)C)C(C)C [compound 78] (Propionyl-VLSLD[dV]PIKLK([γGlu-C16 diacid])KILLEQEKQKKQREQAETN[Aib]QILAQV-NH2)
−2	> 250	1.84	CC[C@H](C)[C@H](NC(C)=O)C(=O)N[C@H](C(=O)N[C@@H](CC(C)C)C(=O)N[C@@H](CO)C(=O)N[C@@H](CC(C)C)C(=O)N[C@@H](CC(=O)O)C(=O)N[C@@H](C(=O)N1CCC[C@H]1C(=O)N[C@H](C(=O)N[C@@H](CCCCN)C(=O)N[C@@H](CC(C)C)C(=O)N[C@@H](CCCCNC(=O)COCCOCCNC(=O)COCCOCCNC(=O)CC[C@H](NC(=O)CC[C@H](NC(=O)CCCCCCCCCCCCCCCCC(=O)O)C(=O)O)C(=O)O)C(=O)N[C@@H](CCCCN)C(=O)N[C@H](C(=O)N[C@@H](CC(C)C)C(=O)N[C@@H](CC(C)C)C(=O)N[C@@H](CCC(=O)O)C(=O)N[C@@H](CCC(N)=O)C(=O)N[C@@H](CCC(=O)O)C(=O)N[C@@H](CCCCN)C(=O)N[C@@H](CCC(N)=O)C(=O)N[C@@H](CCCCN)C(=O)N[C@@H](CCCCN)C(=O)N[C@@H](CCC(N)=O)C(=O)N[C@@H](CCCNC(=N)N)C(=O)N[C@@H](CCC(=O)O)C(=O)N[C@@H](CCC(N)=O)C(=O)N[C@@H](C)C(=O)N[C@@H](CCC(=O)O)C(=O)N[C@H](C(=O)N[C@@H](CC(N)=O)C(=O)NC(C)(C)C(=O)N[C@@H](CCC(N)=O)C(=O)N[C@H](C(=O)N[C@@H](CC(C)C)C(=O)N[C@@H](C)C(=O)N[C@@H](CCC(N)=O)C(=O)N[C@H](C(N)=O)C(C)C)[C@@H](C)CC)[C@@H](C)O)[C@@H](C)CC)[C@@H](C)CC)C(C)C)C(C)C [compound 204] (Ac-IVLSLD[dV]PIKLK([AEEA-AEEA-γGlu-γGlu-C18 diacid])KILLEQEKQKKQREQAETN[Aib]QILAQV-NH2)

Reference: patent US20260001928A1 (CORTERIA PHARMACEUTICALS, priority 2022, published 2026)
